{
  "source": "patent US12201656B2",
  "about": "“Selection of bacterial strains useful in allergy treatment” (BioGaia AB, priority 2016, dated 2025)",
  "system": "phosphorylated PKC (pPKC)",
  "assay": "Mouse enteroid experiment, pPKC Western blot",
  "assay_type": "cell-based",
  "conditions": "DGK inhibitor 2 μM in the presence of wild-type L. reuteri PTA-6475 conditioned media, 45 min",
  "experimental": "FIGS. 5a and 5b illustrate that a commercially available DagK inhibitor (DGK inhi) prevents L. reuteri derived-DagK mediated protein kinase C (PKC) phosphorylation in mouse enteroids. FIG. 5a illustrates a Western blot analysis showing proteins isolated from mouse ileal enteroids of 10 week-old germ free (GF) male mice treated with only media control (LDM-4), WT Lr (WT Lr grown in LDM4), DagK inhibitor and DagK inhibitor with WT Lr for 45 min targeting mammalian phosphorylated PKC (pPKC). 10 μg proteins were loaded into each well of an SDS gel. The pPKC synthesis ratio was obtained by image-J analysis where pPKC of […] was set to 1 and used as baseline. FIG. 5b Mean values of n=3 showing pPKC protein concentration (loaded 10 μg) and quantified by densitometry using image-J. GF control groups were set to 1. *P<0.05, **P<0.01, ***P<0.001. n=10 mice per group. One-Way analysis of variance with Bonferroni correction.\nMouse enteroids (contains only intestinal epithelial layer) were derived from 10 week-old germ free (GF) BALB/c mouse. The enteroids were grown to form a monolayer and were induced with LDM4 media (control), wild-type L. reuteri PTA-6475 conditioned media (50 to 3 kDa cut off), diacylglycerol kinase (DGK) inhibitor (2 μM) only or DGK inhibitor (2 μM) with wild-type L. reuteri PTA-6475 conditioned media (CM; 50 to 3 kDa cut off). […]",
  "data": [
    {"smiles": "Cc1nc2sccn2c(=O)c1CCN1CCC(=C(c2ccccc2)c2ccc(F)cc2)CC1", "note": "[DGK inhibitor, 6-[2-(4-[(4-fluorophenyl)phenylmethylene]-1-piperidinyl)ethyl]-7-methyl-5H-thiazolo-[3,2-a]pyrimidine-5-one]", "values": [
      {"measurement": "PKC phosphorylation", "result": "increased PKC phosphorylation"}
    ]}
  ]
}
